Source: article PMC5594551, “Heterogeneous drug penetrance of veliparib and carboplatin measured in triple negative breast tumors” (Breast Cancer Research : BCR, 2017)
Read-outs that look alike come from different tables or passages of the source.

What was measured:
nuclear DNA = test: Platinum adducts (covalent nuclear DNA-binding) by ICP-MS in TNBC xenograft tumor sections; format: in vivo, beige SCID mice
Description: (§1) Thirty-nine mice were euthanized approximately 3 h after the last dose of veliparib and 24 h after the last dose of carboplatin; two mice used in the DCE-MRI pilot were euthanized 1.5 h after single-dose administration of veliparib and carboplatin (Fig. 1). Bilateral xenograft tumors and liver and muscle (quadriceps) tissues were harvested. Tissues were cut into three pieces and either embedded in optimum cutting temperature (OCT) formulation or were directly snap frozen in liquid-nitrogen-cooled isopentane and stored at − 80 °C until analysis. […] A separate fresh-frozen portion of each tissue per animal was ground for quantification of veliparib and carboplatin by LC-MS. Method development and details of the techniques are described in Additional file 1a-c. […]
b). Technical aspects of the ICP-MS method development. […]
DNA extraction procedure:
The DNA extraction was based on previous publications. 4 In short, 44 μL 1 mol L −1 NH4HCO3, 20 μL 20% (w/v) SDS, and 6 μL 1% (w/v) proteinase K solution were added successively, and incubated for 24hours using a thermomixer. After the digestion was complete, 146 μL saturated 6 mol L−1 NaCl was added to each tube and the tubes were shaken vigorously to precipitate proteins. The tubes were centrifuged for 10min at 2000 g and the supernatant containing the DNA was transferred to another tube. Subsequently, the supernatant was shaken, centrifuged, and transferred to another tube. Following this, 1.5ml absolute ethanol was added to precipitate the DNA and centrifuged from 30 minutes at 21 Kg at 4°C. The DNA was washed twice with 75% ethanol and was subsequently dissolved in 30 μL water. DNA concentrations were analyzed by measuring the absorbance at 260 nm using Nanodrop 1000 spectophotometer (NanoDrop).
Carboplatin adduct quantification:
The quantity of the carboplatin-adducts per mg DNA was quantified (Figure S8) using a previously validated […]
Figure S8: Example graph of mass spectrum of platinum in DNA extraction by ICP-MS.

TNBC = system: TNBC; set-up: method as in ref [4] = [4]; 4. Rugo HS, et al. Veliparib/carboplatin plus standard neoadjuvant therapy for high-risk breast cancer: first efficacy results from the I-SPY 2 TRIAL [abstract]. Cancer Res. 2013;73:Abstract nr S5_02.; details: veliparib 50 mg BID combined with carboplatin, neoadjuvant; ref [4]; cited from earlier work
[1] = Veliparib quantified by LC-MS in plasma, TNBC xenograft tumor, muscle and liver of mice; format: in vivo, beige SCID mice; details: for Median conc. (RSE %) / concentration at 3 h: LC-MS; for concentration at 3 h: beige SCID (Fox Chase), mouse, read-out: Median conc. (RSE %)
Description: Forty-one beige DF mice with severe combined immunodeficiency (SCID) (Fox Chase, strain R035948:1) were implanted with 10^6 MDA-MB-231 (N = 10), HCC70 N = 21) or MDA-MB-436 (N = 10) TNBC cells obtained from the ATCC bilaterally in the mammary fat pads (Fig. 1). When the TNBC xenograft tissue size exceeded 200 mm^3, the mice were randomized across the treatment cohorts. Animals were randomized into veliparib low dose (20 mg/kg), veliparib high dose (60 mg/kg) or placebo + C, introduced via oral gavage three times daily for 3 days (all but the two DCE-MRI study mice). Carboplatin at 60 mg/kg was administered intravenously on day 1 and day 2. Blood samples (50 μL) were obtained at day 2 in ethylenediaminetetraacetic acid (EDTA) containing vials at 0.6, 3 and 5 h after veliparib and carboplatin dose in 15 mice (all xenograft models, Fig. 1). The procedures were approved by the Institutional Animal (IACUC AN092211-01D).
as §1
c) Technical aspects of the LC-MS method development.
Plasma samples (50 μl ) were prepared using protein precipitation with acetonitrile. Small tumor samples (average 44 mg) were pulverized using Biopulverizer R (Biospec Bartlesville, OK, USA). Volume and weight of the pulverized tumor was determined. Veliparib was then extracted using cell lysis buffer (Cell Signaling Technology, Danvers, MA,USA), complemented with Halt Protease & Phosphatase (ThermoScientific, Atlanta, GA,USA). Protein precipitation of the tissue lysates was performed with acetonitrile. Oxaliplatin (Tzchem, Framingham, MA,USA) and iniparib (Sigma-Aldrich, Milwaukee, USA) were used as internal standards.
Veliparib/carboplatin quantification:
Carboplatin and veliparib were measured using LC-MS (Applied Biosystem Systems 3200 LC-MS/MS, Toronto, Canada), with electrospray ionization (ESI), using a Xterra® MS C18 3.5 µm column (Waters, Milford, MA, USA). The mobile phase contained 50:50 methanol and water with 0.1%, formic acid.
Concentration of veliparib in tissues were calculated in mg/g and transferred to mg/L by estimating the average density of the livers, muscles and tumors.
Figure S9: Example graph of mass spectrum of veliparib and carboplatin and the internal standards in plasma […]
Method development/validation
The limit of quantification was 15 ng/ml for veliparib and 156 ng/ml for carboplatin. The calibration curves […]
Figure S10) Repetition quantification from two tissue sections of the same animal to show consistence of results when repeating veliparib extraction (performed by LCMS).

[2] = set-up: method as in PMID 19364967; details: ref [46]; cited from earlier work
[3] = Veliparib plasma and tumor PK model (NONMEM) in xenograft mice; details: for Kp: beige SCID (Fox Chase)
Description: PK-analyses were performed using nonlinear mixed-effects modeling (NONMEM VII Software, ICON Development Solutions, San Antonio, TX, USA), using the first-order conditional estimation with interaction (FOCEI) method. The model-building procedure was guided by the likelihood ratio test, diagnostic plots and internal model validation techniques, including visual predictive checks and bootstrap analysis. The effect of dose, concentration and cell source on TNBC xenograft tissue concentrations was assessed. The variability between animals was assessed using two components: one consistent difference common to all TNBC xenograft tissue samples from left and right mouse tumor and one mouse-specific difference (RRES) to understand the inter-individual and intra-individual variability.
Intra-animal error tumor 28% 21% 19%
proportional residual error plasma 13% 42% 8%
proportional residual error tumor 23% 19% 7%
proportional residual error plasma 41% 22% 9%

In the case of N.N.O=C([O-])C1(C(=O)[O-])CCC1.[Pt+2] [carboplatin], the “Median conc. (RSE %), carboplatin adducts” value (nuclear DNA; HCC70 xenografts) is reported as 1.85 μmol/g DNA, the “Median conc. (RSE %), carboplatin adducts” value (nuclear DNA; HCC70 xenografts, listed as Carboplatin) is reported as 1.85 (42%) μmol/g DNA and the “Median conc. (RSE %), carboplatin adducts” value (nuclear DNA; MDA-MB-231 xenografts) is reported as 0.55 μmol/g DNA. The “Median conc. (RSE %), carboplatin adducts” value (nuclear DNA; MDA-MB-231 xenografts, listed as Carboplatin) was 0.55 (23%) μmol/g DNA, the “Median conc. (RSE %), carboplatin adducts” value (nuclear DNA; MDA-MB-436 xenografts) was 0.54 μmol/g DNA and the “Median conc. (RSE %), carboplatin adducts” value (nuclear DNA; MDA-MB-436 xenografts, listed as Carboplatin) was 0.54 (27%) μmol/g DNA. For the same molecule, the “Median conc. (RSE %), carboplatin adducts” value (nuclear DNA; all TNBC xenograft tissue, 24 h after two carboplatin administrations, ICP-MS) was 0.55 (30%) μmol/g DNA, the “Median conc. (RSE %), carboplatin adducts” value (nuclear DNA; carboplatin combined with placebo) was 0.476 (57) μmol/g DNA and the “Median conc. (RSE %), carboplatin adducts” value (nuclear DNA; carboplatin combined with veliparib 60mg/kg for 3 days) was 0.977 (33) μmol/g DNA. The Median platinum adducts (nuclear DNA; xenograft tumor sections) was 546.3 nmol/g DNA.
In the case of C[C@]1(c2nc3c(C(N)=O)cccc3[nH]2)CCCN1 [veliparib], the “TN patients without pathologic complete response (pCR)” value (TNBC) is given as “approximately 42%”, the “Xenograft tissues below the limit of detection by LC-MS” value ([1]; 20 mg/kg dose) is given as 42% and the “Median conc. (RSE %)” value ([1]; HCC70 xenograft tissue, 60 mg/kg) is given as 0.43 (16) mg/L. For the same molecule, the “Median conc. (RSE %)” value ([1]; MDA-MB-231 xenograft tissue, 60 mg/kg) was 0.27 (18) mg/L, the “Median conc. (RSE %)” value ([1]; MDA-MB-436 xenograft tissue, 60 mg/kg) was 0.32 (26) mg/L and the “Median conc. (RSE %)” value ([1]; TNBC xenograft tissue (all cell lines), 20 mg/kg, 3 h after last dose) was 0.12 (31) mg/L. The “Median conc. (RSE %)” value ([1]; TNBC xenograft tissue (all cell lines), 60 mg/kg, 3 h after last dose, 60 mg/kg) was 0.36 (12) mg/L, the concentration at 3 h ([1]; oral, liver, 60 mg/kg, 3 h after last dose) was 1770 ng/mL and the concentration at 3 h ([1]; oral, plasma, veliparib 60 mg/kg three times daily, 3 h post dose) was 860 ng/mL. It also gave a concentration at 3 h ([1]; tumor (HCC70 xenograft), oral, HCC70 xenograft tissue, 20 mg/kg) of 130 ng/mL, a concentration at 3 h ([1]; tumor (HCC70 xenograft), oral, HCC70 xenograft tissue, 60 mg/kg) of 430 ng/mL and a concentration at 3 h ([1]; tumor (MDA-MB-231 xenograft), oral, MDA-MB-231 xenograft tissue, 20 mg/kg) of 10 ng/mL. The concentration at 3 h ([1]; tumor (MDA-MB-231 xenograft), oral, MDA-MB-231 xenograft tissue, 60 mg/kg) was 270 ng/mL, the concentration at 3 h ([1]; tumor (MDA-MB-436 xenograft), oral, MDA-MB-436 xenograft tissue, 20 mg/kg) was 50 ng/mL and the concentration at 3 h ([1]; tumor (MDA-MB-436 xenograft), oral, MDA-MB-436 xenograft tissue, 60 mg/kg) was 320 ng/mL. For the same molecule, the concentration at 3 h ([1]; tumor (TNBC xenograft, oral), TNBC xenograft tissue (all cell lines), 60 mg/kg, 3 h after last dose) was 360 ng/mL, the “Median conc. (RSE %)” value ([1]; liver, 20 mg/kg, 3 h after last dose) was 0.47 (20) mg/L and the “Median conc. (RSE %)” value ([1]; liver, 60 mg/kg, 3 h after last dose, 60 mg/kg) was 1.77 (14) mg/L. The “Median conc. (RSE %)” value ([1]; muscle, 20 mg/kg, 3 h after last dose) was 0.12 (70) mg/L, the “Median conc. (RSE %)” value ([1]; muscle, 60 mg/kg, 3 h after last dose) was 0.47 (47) mg/L and the “Median conc. (RSE %)” value ([1]; plasma, veliparib 20 mg/kg three times daily, 3 h post dose) was 0.19 (10) mg/L. The “Median conc. (RSE %)” value ([1]; plasma, veliparib 60 mg/kg three times daily, 3 h post dose) was 0.86 (11) mg/L, the “Renal clearance as share of elimination” value [2] was 70% and the Kp ([3]; mouse, tumor (HCC70 xenograft), oral, Penetration from plasma to xenograft tumor (ratio, RPT), HCC70 xenografts) was 0.75. It also gave a Kp ([3]; mouse, tumor (MDA-MB-231 xenograft), oral, Penetration from plasma to xenograft tumor (ratio, RPT), MDA-MB-231 xenografts) of 0.36, a Kp ([3]; mouse, tumor (MDA-MB-436 xenograft), oral, Penetration from plasma to xenograft tumor (ratio, RPT), MDA-MB-436 xenografts) of 0.46 and a Kp ([3]; mouse, tumor (TNBC xenografts), oral, Veliparib transferred from plasma to TNBC xenografts, across the three xenograft types) of 0.35 to 0.74. The Km ([3]; beige SCID, mouse, plasma, oral) was 26.2 µg/mL, the “Interindividual variability on F plasma” value ([3]; mouse PK model) was 13% and the “Interindividual variability on tumor penetration (between tumors in different animals)” value ([3]; mouse PK model) was 37%. The “Intra-animal variability tumor (within the tumor sections of an animal)” value ([3]; mouse PK model) was 28%, the Q tumor ([3]; mouse PK model) was 0.0694 mL/h and the V ([3]; mouse plasma PK model) was 10.1 mL. The V2 ([3]; mouse plasma PK model) was 0.0168 mL, the Vmax ([3]; mouse plasma PK model) was 1.86 mL/h and the KA ([3]; mouse plasma PK model, oral gavage) was 2.11 h⁻¹. The “KPT, rate of transfer from plasma to tumor” value ([3]; mouse tumor PK model) was 900 mL/h.
